From article PMC6906431, “Selective small molecule PARG inhibitor causes replication fork stalling and cancer cell death” (Nature Communications, 2019)

Experiment: Sulforhodamine B (SRB) cytotoxicity assay
Settings: human, A172 glioblastoma cells

Cn1c(=S)c2[nH]c(SCCN3CCOCC3)nc2n(C)c1=O [JA2131]
viability at 72 h, 0.244 µM: 100%
viability at 72 h, 0.488 µM: 98.3%
viability at 72 h, 0.977 µM: 99.4%
viability at 72 h, 1.95 µM: 101%
viability at 72 h, 3.91 µM: 104%
viability at 72 h, 7.82 µM: 96.7%
viability at 72 h, 15.6 µM: 95.9%
viability at 72 h, 31.3 µM: 78.7%
viability at 72 h, 62.5 µM: 53.3%
viability at 72 h, 125 µM: 16.6%
viability at 72 h, 250 µM: 14.4%
viability at 72 h, 500 µM: 13.5%
